Source: ChEMBL document CHEMBL1154520, “Synthesis and antitumor activity of novel 20s-camptothecin analogues” (Bioorg Med Chem Lett, 2009)

Columns and labels:
[1] = test system: MCF7; assay: Cytotoxicity against human MCF7 cells by MTT assay; type: functional, cell-based
[2] = Chemical stability assessed as half life in PBS at pH 7.4 by HPLC; type: physicochemical
[3] = test system: PC-3; assay: Cytotoxicity against human PC3 cells by MTT assay; type: functional, cell-based
[4] = test system: HCT-8; assay: Cytotoxicity against human HCT8 cells by MTT assay; type: functional, cell-based
[5] = test system: HCT-8; assay: Antitumor activity against human HCT8 xenografted in BALB/c nu/nu mouse assessed as change in body weight at 20 mg/kg, ip q3d for 3 days; type: functional; conditions: route intraperitoneal
[6] = test system: HCT-8; assay: Antitumor activity against human HCT8 xenografted in BALB/c nu/nu mouse assessed as tumor inhibition rate at 20 mg/kg, ip q3d for 3 days; type: functional; conditions: HCT-8, ip, 72 h, route intraperitoneal
[7] = test system: HCT-8; assay: Antitumor activity against human HCT8 xenografted in BALB/c nu/nu mouse assessed as change in body weight at 10 mg/kg, ip q3d for 3 days; type: functional; conditions: route intraperitoneal
[8] = test system: HCT-8; assay: Antitumor activity against human HCT8 xenografted in BALB/c nu/nu mouse assessed as tumor inhibition rate at 10 mg/kg, ip q3d for 3 days; type: functional; conditions: HCT-8, ip, 72 h, route intraperitoneal
[9] = test system: Mus musculus; assay: Toxicity to BALB/c nu/nu mouse assessed as mortality at 10 mg/kg, ip q3d for 3 days; type: organism-based; set-up: dose 10 mg/kg, route intraperitoneal; conditions: in vivo, 72 h
[10] = test system: Mus musculus; assay: Toxicity to BALB/c nu/nu mouse assessed as mortality at 20 mg/kg, ip q3d for 3 days; type: organism-based; set-up: dose 20 mg/kg, route intraperitoneal; conditions: in vivo, 72 h
[11] = test system: Mus musculus; assay: Toxicity to BALB/c nu/nu mouse assessed as mortality at 5 mg/kg, ip q3d for 3 days; type: organism-based; set-up: dose 5 mg/kg, route intraperitoneal; conditions: in vivo, 72 h
[12] = test system: HCT-8; assay: Antitumor activity against human HCT8 xenografted in BALB/c nu/nu mouse assessed as change in body weight at 5 mg/kg, ip q3d for 3 days; type: functional; conditions: route intraperitoneal
[13] = test system: HCT-8; assay: Antitumor activity against human HCT8 xenografted in BALB/c nu/nu mouse assessed as tumor inhibition rate at 5 mg/kg, ip q3d for 3 days; type: functional; conditions: HCT-8, ip, 72 h, route intraperitoneal

Row | Structure (SMILES) | IC50 [1] [nM] | half-life [2] [min] | IC50 [3] [nM] | IC50 [4] [nM] | Activity [5] [%] | inhibition in vivo at 20 mg/kg [6] [%] | Activity [7] [%] | inhibition in vivo at 10 mg/kg [8] [%] | Activity [9] | Activity [10] | Activity [11] | Activity [12] [%] | inhibition in vivo at 5 mg/kg [13] [%]
1 | CC[C@@]1(OC(=O)C(C)n2cncn2)C(=O)OCc2c1cc1n(c2=O)Cc2cc3ccccc3nc2-1 (stereo partly drawn) | 650 | 840 | 440 | 510 | – | – | – | – | – | – | – | – | –
2 | CC[C@@]1(OC(=O)Cn2cccn2)C(=O)OCc2c1cc1n(c2=O)Cc2cc3ccccc3nc2-1 | 120 | > 2880 | 160 | 610 | 8 | 75.6 | 7 | 35.3 | Non-toxic | Non-toxic | – | – | –
3 | CC[C@@]1(OC(=O)C(C)n2cccn2)C(=O)OCc2c1cc1n(c2=O)Cc2cc3ccccc3nc2-1 (stereo partly drawn) | 810 | > 2880 | 130 | 230 | -5 | 92.9 | -2 | 77.1 | Non-toxic | – | – | – | –
4 | CC[C@@]1(OC(=O)C[n+]2cccc(C(C)=O)c2)C(=O)OCc2c1cc1n(c2=O)Cc2cc3ccccc3nc2-1 | 3450 | – | 540 | 2580 | – | – | – | – | – | – | – | – | –
5 | CC[C@@]1(OC(=O)COc2cc(C(F)(F)F)ncn2)C(=O)OCc2c1cc1n(c2=O)Cc2cc3ccccc3nc2-1 | 1790 | 840 | 1340 | 1510 | 12 | 49.3 | 36 | 25.4 | Non-toxic | Non-toxic | – | – | –
6 | CC[C@@]1(OC(=O)C[n+]2cccc(C)c2)C(=O)OCc2c1cc1n(c2=O)Cc2cc3ccccc3nc2-1 | 3760 | – | 600 | 3780 | – | – | – | – | – | – | – | – | –
7 | CC[C@@]1(OC(=O)Cn2cncn2)C(=O)OCc2c1cc1n(c2=O)Cc2cc3ccccc3nc2-1 | 690 | 2700 | 150 | 740 | – | – | – | – | – | – | – | – | –
8 | CC[C@@]1(OC(=O)Cn2ccnc2)C(=O)OCc2c1cc1n(c2=O)Cc2cc3ccccc3nc2-1 | 900 | 1440 | 210 | 600 | 1 | 46.2 | 6 | 27.8 | Non-toxic | Non-toxic | – | – | –
9 | CC[C@@]1(OC(=O)C[n+]2cccc(O)c2)C(=O)OCc2c1cc1n(c2=O)Cc2cc3ccccc3nc2-1 | 3800 | – | 110 | 2430 | – | – | – | – | – | – | – | – | –
10 | CC[C@@]1(OC(=O)Cn2ccnn2)C(=O)OCc2c1cc1n(c2=O)Cc2cc3ccccc3nc2-1 | 1200 | 1440 | 160 | 380 | – | – | – | – | – | – | – | – | –
11 | CC[C@@]1(OC(=O)C(C)Oc2cc(C(F)(F)F)ncn2)C(=O)OCc2c1cc1n(c2=O)Cc2cc3ccccc3nc2-1 (stereo partly drawn) | 270 | 540 | 320 | 1110 | – | – | – | – | – | – | – | – | –
12 | CC[C@@]1(OC(=O)C(C)n2ccnc2)C(=O)OCc2c1cc1n(c2=O)Cc2cc3ccccc3nc2-1 (stereo partly drawn) | 110 | 1080 | 380 | 590 | – | – | – | – | – | – | – | – | –
13 | CC[C@@]1(OC(=O)C(C)O)C(=O)OCc2c1cc1n(c2=O)Cc2cc3ccccc3nc2-1 (stereo partly drawn) | 560 | – | 500 | 820 | – | – | – | – | – | – | – | – | –
14 | CC[C@@]1(O)C(=O)OCc2c1cc1n(c2=O)Cc2cc3c(CN(C)C)c(O)ccc3nc2-1 [TOPOTECAN] | 5550 | – | 3990 | 3660 | – | – | -29 | 92.5 | – | – | Non-toxic | -3 | 62
15 | CC[C@@]1(OC(=O)CO)C(=O)OCc2c1cc1n(c2=O)Cc2cc3ccccc3nc2-1 | 10400 | > 2880 | 30 | 3000 | – | – | – | – | – | – | – | – | –
16 | CC[C@@]1(OC(=O)C[n+]2cccc(C(=O)O)c2)C(=O)OCc2c1cc1n(c2=O)Cc2cc3ccccc3nc2-1 | 2120 | – | 550 | 760 | – | – | – | – | – | – | – | – | –
17 | CC[C@@]1(OC(=O)C[n+]2cccc(CO)c2)C(=O)OCc2c1cc1n(c2=O)Cc2cc3ccccc3nc2-1 | 2570 | – | 800 | 2090 | – | – | – | – | – | – | – | – | –
18 | CC[C@@]1(OC(=O)C(C)n2ccnn2)C(=O)OCc2c1cc1n(c2=O)Cc2cc3ccccc3nc2-1 (stereo partly drawn) | 160 | 780 | 590 | 480 | – | – | – | – | – | – | – | – | –
